According to patent US5376681A, “Aminocoumaran derivatives, their production and use” (Takeda Chemical Industries, Ltd., priority 1990, dated 1994):

System: behavior induced by spinal intrathecal injection of FeCl2 in mice
Assay: Effect of drugs on the change of the behavior induced by spinal intrathecal injection of FeCl2 in mice (Experiment 1)
Assay type: in vivo, mice (male Slc: ICR)
Conditions: oral, 30 minutes prior to ferrous chloride injection; for % inhibition: 100 mg/kg, calculated from mean scores vs saline; for Mean Score Administration of Test Compound of 100 mg/kg: behavioral score 0 (normal) to 5 (death), 10 mice per group
Protocol: Effect of drugs on the change of the behavior induced by spinal intrathecal injection of FeCl2 in mice
Male Slc: ICR mice (5 weeks) (10 mice per group) were used. Saline (5 μl/mouse) containing 50 mM FeCl2 was injected into the subarachnoid space between the 6th lumbar segment and the 1st sacral and scored as follows.
Percent inhibitions were calculated based on the scores evaluated above. The test compounds were orally administered 30 minutes prior no ferrous chloride injection. […]

Compound | % inhibition [%] | Mean Score Administration of Test Compound of 100 mg/kg
Cc1c(C)c2c(c(C)c1N)CC(C)(Cc1ccccc1)O2 (stereo not shown) [Example 1, 5-Amino-2-benzyl-2,4,6,7-tetramethyl-2,3-dihydrobenzofuran] | 73.9 | 1.2
CCNc1c(C)c(C)c2c(c1C)CC(C)(CCc1ccc(F)cc1)O2 (stereo not shown) [Example 47, 5-Ethylamino-2-[2-(4-fluorophenyl)ethyl]-2,4,6,7-tetramethyl-2,3-dihydrobenzofuran] | 79.6 | 1.0
Cc1c(C)c2c(c(C)c1N)CC(C)(CCc1ccccc1)O2 (stereo not shown) [Example 84, 5-Amino-2,4,6,7-tetramethyl-2-(2-phenylethyl)-2,3-dihydrobenzofuran] | 89.1 | 0.5
Cc1c(C)c2c(c(C)c1N)CC(C)(CCc1ccc(F)cc1)O2 (stereo not shown) [Example 85, 5-Amino-2,4,6,7-tetramethyl-2-[2-(4-fluorophenyl)ethyl]-2,3-dihydrobenzofuran] | 87.0 | 0.6
Cc1c(C)c2c(c(C)c1N)CC(C)(C)O2 [Example 103, 5-Amino-2,2,4,6,7-pentamethyl-2,3-dihydrobenzofuran] | 98.0 | 0.1
